# Measured values from patent US20230218555A1, “CREATINE, ITS DERIVATIVES, COMPOSITIONS AND METHODS OF USE THEREOF” (priority 2021, published 2023).
# Key:
# Assay type in all cases: in vivo, human
# [1] = test system: osteoarthritis of numerous joints; assay: Example 19: abdominal subcutaneous injections
# Description: A physician subject with continually worsening, for 15-16 years, painful osteoarthritis of numerous joints (almost entire spine, wrists, right shoulder, knees and most recently the feet) on one day at 11:30 AM self injected subcutaneously the right abdominal area with 3 ml of a sterile aqueous solution that they had prepared containing N-acetyl ethyl creatinate 1%, arginine 0.25%, pH 7. Using 1 ml insulin syringes with short 8 mm needles 1 ml of the solution was injected into each of 3 sites. Ten minutes later their whole body was 95+% pain free and remained so for 3.5 hours when pain was sensed to be returning. Pain in usual severity returned within another 20-30 minutes.
# The next day at 9:00 AM the subject injected 5 sites, each with 1 ml of the same solution. Within 10 minutes their whole body again was 95+% pain free. This almost complete pain free state was maintained for 4 hours when very mild pain in the knees was sensed. Pain in knees and in cervical spine returned to usual degree of severity within an ensuing period of about 20 minutes.
# thermal burns = assay: Example 22: pain of thermal burns, topical; conditions: for relief of burn pain: person
# From the text: One subject spilled boiling hot water on their left hand. Within a couple hours pain was intense. They then applied 4% solution of N-acetyl ethyl creatinate (C15) dissolved in water: ethanol: propylene glycol 5:3:2 which they had been using to relieve pain over a lateral meniscus. […] Such application was continued over the next several days until the burn pain disappeared spontaneously.
# A second subject burned their forearm where they accidentally touched the hot oven rack. They immediately applied 9% solution of N-acetyl ethyl creatinate (C15) dissolved in water: ethanol: propylene glycol 5:3:2 that they were using for topical treatment of their rheumatoid arthritis. […] Repeated application were applied over the next 3 days, until the burn pain spontaneously ceased.
# painful right elbow = assay: Example 24: osteoarthritis, elbow
# Description: A subject presented with a history of painful right elbow for several weeks. They were provided with a topical solution of C15 8% in WP 82.
# A subject with a history of right elbow for several months applied the above same solution to the elbo
# On three other occasions, C15 1.5% aqueous solution 1 ml was injected subcutaneously in two lateral sites of the elbow and one site over extensor part of the elbow.
# painful right shoulder = assay: Example 24: osteoarthritis, shoulder
# From the text: The same subject above has had painful right shoulder for several months.
# [2] = test system: cervical and thoracic spine; assay: Example 24: osteoarthritis, spine
# Description: The same subject above topically applied an adhesive dressing, 5 cm wide and 30 cm long, saturated with a solution of C15 4% in WP 82 to the upper spine.
# Over a period of 3 months, subcutaneous injections of 0.6 ml of the above C15 solution were injected subcutaneously into each of 5 intervertebral sites of the cervical and thoracic spine.
# [3] = test system: Rheumatoid Arthritis (RA); assay: Example 26: rheumatoid arthritis, intralesional injection and topical; conditions: 3-9% in WP 82 in nitrile gloves, 1 hour twice daily, after the creatine injections
# Description: A subject, described in an earlier Example, after approximately 4 months of worsening symptoms, and finger joint enlargements on both hands, realized that they were rapidly developing RA, especially when a rheumatoid nodule enlarged over the terminal joint of the left […] finger to a size of approximately 1 cm in diameter, and about 3 mm thick. The nodule was initially injected with 0.15 ml of a 2% aqueous solution/suspension of creatine monohydrate once weekly for 4 injections. […] Thereafter the subject wore a nitrile glove containing a few drops of C15 3-9% dissolved in WP 82 for an hour twice daily on the left hand only. After another 2 months C15 9% in WP 82 was topically applied by means of their wearing nitrile gloves containing the C15 solution for 1 hour twice daily. […] It is intended for the subject to continue topical treatment in one form or another for an indefinite time forward.
# [4] = test system: pruritic urticarial mosquito bite lesions; assay: Example 28: mosquito bite itch
# Description: Six subjects, 2 males and 4 females, age 31-74 years, who had gathered for a back yard cookout, suffered multiple mosquito bites. One subject carried 2 ounces of C15 6% in WEP 532 shared with the five others for topical application to the pruritic urticarial mosquito bite lesions.
# This solution was later applied to an intensely pruritic urticarial lesion, 1 cm in diameter, due to a mosquito bite. […] Clinical evidence of the lesion began to fade about 3 minutes later, and at 5 minutes the subject had no sensory awareness of the lesion as it disappeared over the next 10-15 minutes.
# [5] = test system: migraine headaches and associated symptoms; assay: Example 29: migraine headache
# Description: A subject, with a history of migraine headaches and associated symptoms, presented with a recurrent episode of such that had begun during their night of sleep. Symptoms included an intense frontal headache, and feeling of light dizziness, and nausea when they turned their head. They were provided a 9% solution of C15 dissolved in WEP 532 to be applied to the forehead and temporal areas as needed to relieve symptoms. […] Relief lasted for 1-4 hours during the first day of use, and during the second day of use, the subject experienced a much longer period of relief of symptoms.
# [6] = test system: burning itch induced by Mucuna pruriens spicules; assay: Example 38: burning itch induced by Mucuna pruriens; conditions: 10% in lotion
# Description: Pods with beans were obtained from Afro Caribe Botanica, 16 separate specimens. Small round brushes marketed for interdental cleaning were used to collect spicules from the pods. Application to both volar and extensor surfaces of the forearm were made by intense rubbing of the skin with such brush containing spicules. Burning itch developed within 5-7 minutes. […] Participants in this study included the following; • 1. A person. • 2. A person. • 3. A person. • 4. A person. • 5. A person.
smiles,measurement,setting,value
"CCOC(=O)CN(C)C(N)=NC(C)=O [Compound C15, N-acetyl ethyl creatinate]",whole body pain free,"[1]; 3 ml of 1% solution (arginine 0.25%, pH 7), 1 ml into each of 3 abdominal sites, subcutaneous",≥ 95%
same,duration of pain free state,"[1]; 3 ml, 3 sites",3.5 h
same,time to pain free state,"[1]; 3 ml, 3 sites",Ten
same,duration of pain free state,"[1]; 5 sites, each 1 ml",4 h
same,time to pain free state,"[1]; 5 sites, each 1 ml",≤ 10 min
same,whole body pain free,"[1]; next day, 5 sites, each 1 ml of the same solution",≥ 95%
same,relief of burn pain,"thermal burns; 4% in water: ethanol: propylene glycol 5:3:2, topical, hand",immediate relief of the burn pain
same,duration of relief,thermal burns; 4% solution,4 to 5 h
same,relief of burn pain,"thermal burns; 9% in water: ethanol: propylene glycol 5:3:2, topical, forearm",Burn pain was completely instantly relieved
same,duration of relief,thermal burns; 9% solution,4 to 5 h
same,extent of pain relief,"painful right elbow; 1.5% aqueous solution 1 ml subcutaneous, three sites of elbow, person",complete relief of pain
same,duration of relief,painful right elbow; 1.5% subcutaneous,24 to 30 h
same,time to pain relief,painful right elbow; 1.5% subcutaneous,within an hour
same,relief of pain,"painful right elbow; 8% in WP 82, topical multiple times, person",No pain relieve was experienced
same,duration of relief,"painful right elbow; 8% in WP 82, topical, person",5 to 6 h
same,relief of pain,"painful right elbow; 8% in WP 82, topical, person",relieved pain instantaneously completely
same,duration of relief,painful right shoulder; subcutaneous 1 ml,6 to 7 days
same,extent of pain relief,"painful right shoulder; subcutaneous 1 ml of 1.5% aqueous solution, three occasions, person",complete relief of pain
same,time to pain relief,[2]; 4% dressing,within an hour
same,duration of relief,"[2]; 4% dressing, until removed",about 8 hours
same,extent of pain relief,"[2]; adhesive dressing saturated with 4% in WP 82 on upper spine, person",complete relief of pain
same,extent of pain relief,"[2]; subcutaneous 0.6 ml into each of 5 intervertebral sites, five occasions",complete relief of pain
same,duration of relief,"[2]; subcutaneous 0.6 ml, 5 sites",1-4 weeks
same,appearance of hands after 9 months of treatments,[3],both hands appear to be completely normal
same,extent of itch relief,"[4]; 6% in WEP 532, topical, six subjects",itch was completely eradicated
same,extent of itch relief,"[4]; 6% in WEP 532, person one, lesion 1 cm",all itch sensation was gone and did not return
same,time to eradication of itch,"[4]; 6% in WEP 532, six subjects",about 1 minute
same,time to loss of itch sensation,[4]; person one,≤ 1 min
same,"time until lesion began to fade, after itch relief",[4]; person one,about 3 minutes
same,time of disappearance of lesion,"[4]; person one, counted from 5 minutes",10 to 15 min
same,return of itch,[4]; six subjects,No itch returned
same,relief of symptoms,"[5]; 9% in WEP 532, to forehead and temporal areas",relieved symptoms within a few minutes
same,duration of relief,[5]; first day of use,1 to 4 h
same,symptoms at end of third day,[5]; following 3 more applications,symptoms were no longer detectable
same,follow-up,[5]; next week,remained symptoms free over the next week of follow-up
same,persistence of relief,[6],permanent
same,time to complete relief of itch,[6],1 to 2 min
same,extent of itch relief,"[6]; forearm, five participants",complete relief of itch
